We go through two molecules from patent publication US11299710B2, “Brown adipocyte progenitors in human skeletal muscle” (ENERGESIS PHARMACEUTICALS, INC., priority 2011, dated 2022).

For assay [1], the system named is human fetal muscle CD34+ cells. The assay is described as follows: UCP1 mRNA expression by quantitative RT-PCR in cultured fetal muscle CD34+ cells. In kind it is cell-based. The settings on record: rosiglitazone 1 μM. On the procedure:
UCP1 mRNA expression in fetal muscle CD34+ cells could be modulated by drug treatment. Cell-permeating cAMP derivatives strongly stimulated (7 to 8-fold) UCP1 mRNA expression in both primary cultured and expanded cells. The effects of cAMP derivatives, 8-bromo-cAMP, 0.25 mM or (4-chlorophenylthio)-cAMP, 0.25 mM (cAMP) on UCP1 mRNA expression in CD34+ cells in primary culture (PC) or expanded up to passage 3 (P3) are shown in FIG. 3B. All the cells were grown for 4-6 days in EGM2 medium and then placed for 8-12 days in the adipogenic medium described under Materials and Methods. The results are means±s.e.m. of arbitrary values normalized using the corresponding cyclophilin A values. […]
Rosiglitazone, a PPARγ agonist, had no effect in primary culture cells but strongly stimulated (8-fold) UCP1 mRNA expression in expanded cells. The results are expressed as in FIG. 3B (**p<0.01, n=4-7). […]
Total cell RNA was prepared using the kit NucleoSpin® RNAII (Clontech, Palo Alto, Calif.), Extract-all solution (Eurobio, Courtaboeuf, France) or PureLink RNA Isolation Kit (Invitrogen #12183-016) and quantified by Biophotometry (Biophotometer, Eppendorf). […]
Arbitrary units were determined by normalizing target mRNA levels to cyclophilin mRNA levels (based on Cts), wherein the cyclophilin levels were first divided by 100,000 for ease of reference. […]

For assay [2], the system named is human fetal muscle-derived CD31- cells. The assay is described as follows: UCP1 mRNA expression by quantitative RT-PCR in CD31- cells. In kind it is cell-based. Conditions: day 16 of differentiation; normalized with cyclophilin A; rosiglitazone 1 microM in MDM from day 0; BMP7 6 nM 2 days before day 0 then MDM. As to the method: UCP1 mRNA expression in human fetal muscle-derived CD31− cells at day 16 of differentiation were measured.
All the cells were grown for 3 days in proliferation medium (EGM2) and then (on day 0) placed for 16 days in adipogenic differentiation medium (Minimal Differentiation Medium, MDM). The “EGM2” cells were maintained in EGM2 medium all along. Rosiglitazone (1 microM) was added from day 0 and kept in the medium until the end of the study. BMP7 (6 nM) was added 2 days before day 0 and removed at day 0. Effects of differentiation medium (MDM vs. EGM2), rosiglitazone (MDM+rosi vs. MDM) and BPM7 (MDM+BMP7 vs. MDM) are shown as fold change (as compared to EGM2 cells) on UCP1 mRNA expression in human muscle-derived brown adipocyte progenitor cells (CD31-). […]
Quantitative real-time PCR was performed using ABI rapid thermal cycler system and a SYBR Green PCR master mix (Applied Biosystems, Foster City, Calif.), or an ABI 7300 Real-time PCR instrument, a TaqMan Gene Expression Master Mix (Applied Biosystems #4369016) and TaqMan Gene Expression Pre-formulated Assays for human uncoupling protein-1 (GenBank NM_021833) (Applied Biosystems Assay ID Hs01084772_m1, TaqMan Gene Expression Assay part #4351372) and for human peptidylprolyl isomerase A “cyclophilin A” (GenBank NM_021130) (Applied Biosystems Assay ID Hs99999904_m1, TaqMan® Gene Expression Assay part #4448485). […]

Assay [3] concerns UCP1 mRNA in human skeletal muscle (vastus lateralis). The assay is described as follows: UCP1 mRNA expression in skeletal muscle biopsies before and after rosiglitazone treatment in vivo. As to the method: Since the PPARγ agonist rosiglitazone was a strong inducer of UCP1 mRNA expression in muscle CD34+ cells in culture, the effect of this compound in vivo in humans was investigated. Vastus lateralis muscle biopsies from 7 obese patients with type 2 diabetes mellitus treated for the management of their metabolic syndrome with rosiglitazone were used. The biopsies were obtained before and after 8 weeks of treatment with rosiglitazone (2×4 mg per day). […] In that study rosiglitazone, concomitantly with the improvement in insulin sensitivity, increased the level of expression of UCP1 in muscle by about 1.6-fold. […] The results are the means±s.e.m. of arbitrary values normalized using the corresponding cyclophilin A values (n=7, *p<0.05 vs. control).
In FIG. 5, showing UCP1 mRNA levels in skeletal muscle biopsies from a patient group (n=7), “control” corresponds to levels before treatment, and “Rosi” corresponds to levels after treatment (8 weeks) with rosiglitazone. Being a longitudinal study the effect of rosiglitazone on UCP1 levels in each individual (comparison of individual values for the “control”-before and “Rosi”-after conditions) were determined. Starting with 25 ng cDNA (produced by reverse transcription of RNA) the threshold of detection (Ct) during real-time PCR was about 22 for UCP1 and about 18 for cyclophilin. The effect of rosiglitazone (UCP1 level at end of treatment vs. before treatment) were as follows: […]
Quantitative real-time PCR was performed using ABI rapid thermal cycler system and a SYBR Green PCR master mix (Applied Biosystems, Foster City, Calif.), or an ABI 7300 Real-time PCR instrument, a TaqMan Gene Expression Master Mix (Applied Biosystems #4369016) and TaqMan Gene Expression Pre-formulated Assays for human uncoupling protein-1 (GenBank NM_021833) (Applied Biosystems Assay ID Hs01084772_m1, TaqMan Gene Expression Assay part #4351372) and for human peptidylprolyl isomerase A “cyclophilin A” (GenBank NM_021130) (Applied Biosystems Assay ID Hs99999904_m1, TaqMan® Gene Expression Assay part #4448485). Cyclophilin A was used as a control to account for any variations due to the efficiency of the reverse transcription. The upstream and downstream oligonucleotide primers were chosen on both sides of an intron to prevent amplification of contaminating genomic DNA.
Primers used for real time quantitative PCR in human skeletal muscle are as follows:
Data are expressed as means±s.e.m. Significances were evaluated using the unpaired Student's t-test. A paired Student's t-test was used to determine the effects of rosiglitazone on human skeletal muscle UCP1 mRNA levels. Significances were set at p<0.05.

Assay [4] concerns CD31- cells. Put plainly: Quantification of UCP1 protein by fluorescence immunohistochemistry in CD31- cells. In kind it is cell-based, human. Conditions: rosiglitazone 1 μM in MDM from day 0, 15 days. An excerpt: Using this method, UCP1 staining can be evaluated using automated high content imaging. GE Healthcare's InCell 1000 High Content Imager combines automated microscopy with high content image analysis software (InCell Developer Toolbox). The reference compound rosiglitazone was used to promote the differentiation of the CD31− cells and increase the expression of UCP1. Using a primary antibody that recognizes UCP1, Abcam ab23841, and a secondary antibody, Alexafluor 488 goat anti-rabbit antibody, we can quantify relative UCP1 levels per cell.
Referring to FIGS. 17A-17B, culturing and differentiation of CD31− cells into brown adipocytes were performed as described in Methods without (FIG. 17A) or with (FIG. 17B) rosiglitazone (1 μM) added to the adipogenic medium (MDM) from day 0. […] Alexafluor 488 goat anti-rabbit antibody was used to quantify relative UCP1 levels (green). […] UCP1 signal intensity was measured using the GE Developer Toolbox software on images collected on the InCell 1000 Automated High Content Imager. […]
Culturing and differentiation of CD31− cells into brown adipocytes were performed using adipogenic differentiation medium lacking (Minimal Differentiation Medium, MDM) or containing 1 μM rosiglitazone (Reference Differentiation Medium, RDM). […] As a readout, total intensity of UCP1 signal within the cell was used, normalized to cell number.

The subject of assay [5] is CD31+ cells (CD34+/CD45-/CD56-/CD146-/CD31+). The assay is described as follows: Differentiation of CD31+ cells in adipogenic medium. In kind it is cell-based, human. Conditions: MDM with or without rosiglitazone or BMP7. As to the method:
(§1) With the aim of further purifying the CD34+ cells in search for the purest physiological brown adipocyte progenitors, stroma-vascular cells were purified from two independent samples of human fetal skeletal muscle (18-19 weeks of gestation). Following the CD45, CD56, CD34, and CD146 sorting described above, an additional step of FACS sorting using an anti-CD31 antibody was performed. The cells were sorted based on the presence of the mature endothelial cell surface marker CD31 (CD31+) or absence of that marker (CD31-). It was hypothesized that the CD31− subpopulation may be a purer progenitor of human brown adipocytes. The CD31− cell fraction amounted to about 80% of the CD34+ cell population derived from skeletal muscle. For purpose of simplicity, CD34+/CD45−/CD56−/CD146−/CD31− are called “CD31−” cells [EMC309 (CD31−) and EMC314 (CD31−)]. CD34+/CD45−/CD56−/CD146−/CD31+ are called “CD31+” cells [EMC309 (CD31+) and EMC314 (CD31+)]. In addition, the myogenic progenitor cells expressing the cell surface antigen CD56 (CD56+) were also sorted and cultured: CD34+/CD45−/CD56+ (from EMC314) and CD45−/CD56+ (from EMC309) are called “CD56+” cells [EMC309 (CD56+) and EMC314 (CD56+)].
(§2) The sorted cells (CD31−, CD31+, and CD56+ cell populations) were grown under the same conditions as described above, i.e., 2-4 days in proliferation medium (EGM2) and 10-16 days in adipogenic differentiation medium. […]

The test system of assay [6] is CD31- cells (CD34+/CD45-/CD56-/CD146-/CD31-) from human fetal skeletal muscle. Put plainly: Differentiation of CD31- cells into adipocyte-like multilocular cells / brown adipocytes. In kind it is cell-based. On the procedure:
as §1, §2

Assay [7] has as its system CD56+ cells. Put plainly: Differentiation of CD56+ cells in adipogenic medium. In kind it is cell-based, human. Conditions: MDM with or without rosiglitazone or BMP7. On the procedure:
as §1, §2

Where “and” joins values, the source holds several entries; their conditions need not be identical. Identical values can stand only once.

Consider `CN(CCOc1ccc(CC2SC(=O)NC2=O)cc1)c1ccccn1` (centres unmarked) [rosiglitazone], for which the “stimulation of UCP1 mRNA expression” value in assay [1] (expanded cells (P3), vs untreated control) was determined as 8 fold. Also, in assay [1] (primary culture cells (PC)), the “effect on UCP1 mRNA expression” value is recorded as “no effect”. For the same molecule, the “increase of UCP1 expression compared to EGM2 control condition” value in assay [2] is listed as 507-553 fold. For the same molecule, the “increase of level of expression of UCP1 in muscle” value in assay [3] (7 obese type 2 diabetes patients, 8 weeks, 2×4 mg per day, group mean, after vs before treatment) is “about 1.6 fold”. The “increase of UCP1 level at end of treatment vs. before treatment” value in assay [3] (individual patients 1-7, 8 weeks rosiglitazone 2×4 mg per day) was 180% and 8% and 310% and 10% and 50% and 80%. The “UCP1 mRNA level after treatment, normalized to cyclophilin A” value in assay [3] (individual patients 1-7, after 8 weeks rosiglitazone) is 730 arbitrary units and 600 arbitrary units and 556 arbitrary units and 142 arbitrary units and 652 arbitrary units and 453 arbitrary units and 677 arbitrary units. Moreover, the “UCP1 level at end of treatment relative to control (before treatment)” value in assay [3] (individual patients 1-7, control = 100%) is 280% and 108% and 410% and 110% and 150% and 100% and 180%. Also, the “UCP1 intensity per nucleus” value in assay [4] was 105,542. For the same molecule, the “increase of level of UCP1 protein” value in assay [4] (vs without rosiglitazone) was 7 fold.

B1: BMP7: recombinant human bone morphogenic protein-7 from R&D Systems (protein, UniProt P18075 293-431, looked up)
Bone morphogenetic protein 7: STGSKQRSQNRSKTPKNQEALRMANVAENSSSDQRQACKKHELYVSFRDLGWQDWIIAPEGYAAYYCEGECAFPLNSYMNATNHAIVQTLVHFINPETVPKPCCAPTQLNAISVLYFDDSSNVILKKYRNMVVRACGCH
Consider B1, for which the “differentiation of CD31+ cells into adipocyte-like multilocular cells” value in assay [5] was “did not differentiate”. Also, the “differentiation of CD31- cells into brown adipocytes” value in assay [6] (6 nM, before induction of differentiation (day -3 or -2 to day 0)) is “strongly promoted”. Also, the “fraction of CD31- cells differentiated into adipocyte-like multilocular cells” value in assay [6] (MDM containing the compound) is reported as “virtually all”. The “increase of UCP1 expression compared to EGM2 control condition” value in assay [2] is reported as 78-127 fold. Moreover, in assay [7], the “differentiation of CD56+ cells into adipocyte-like multilocular cells” value was “did not differentiate”.
